Data published in ChEMBL document CHEMBL1143855, “(2S,2'R)-analogue of LG190178 is a major active isomer” (Bioorg Med Chem Lett, 2008).

Target: T1, Vitamin D3 receptor (Homo sapiens) (UniProt P11473)
T1 sequence (whole entry): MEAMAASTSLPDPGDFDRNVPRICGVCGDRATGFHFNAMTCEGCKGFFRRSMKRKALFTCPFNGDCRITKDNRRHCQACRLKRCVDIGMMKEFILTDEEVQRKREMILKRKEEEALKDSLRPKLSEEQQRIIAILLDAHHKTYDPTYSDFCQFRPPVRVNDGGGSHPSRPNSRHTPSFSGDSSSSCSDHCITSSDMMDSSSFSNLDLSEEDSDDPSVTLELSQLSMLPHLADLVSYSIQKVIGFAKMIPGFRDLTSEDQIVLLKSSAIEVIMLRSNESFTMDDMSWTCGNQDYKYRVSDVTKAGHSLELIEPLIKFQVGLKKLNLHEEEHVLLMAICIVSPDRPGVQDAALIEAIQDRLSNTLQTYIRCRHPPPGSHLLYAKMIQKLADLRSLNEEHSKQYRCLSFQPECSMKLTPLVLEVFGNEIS
Experiment: Binding affinity to VDR relative to (1-alpha 25-(OH)2D3

Activity	Structure (SMILES)
28.3	CCC(CC)(c1ccc(OC[C@@H](O)CO)c(C)c1)c1ccc(OC[C@H](O)C(C)(C)C)c(C)c1
0.112	CCC(CC)(c1ccc(OC[C@H](O)CO)c(C)c1)c1ccc(OC[C@@H](O)C(C)(C)C)c(C)c1
0.482	CCC(CC)(c1ccc(OC[C@H](O)CO)c(C)c1)c1ccc(OC[C@H](O)C(C)(C)C)c(C)c1
0.831	CCC(CC)(c1ccc(OC[C@@H](O)CO)c(C)c1)c1ccc(OC[C@@H](O)C(C)(C)C)c(C)c1
